Assay results: US10471035B2, “Compositions and methods for using esters of meroterpenes and of other resveratrol analogues” (Sunny BioDiscovery, priority 2014, dated 2019)
Values after ≈ are worked out from the molar mass of the structure shown.

How the values were obtained:
RAR = experiment: Cignal RAR reporter assay; type: cell-based; conditions: 0.3 μg/ml
Description: Tissue irritation is a common side effect of retinoids. It is mediated, at least in part, by retinoid interaction with retinoic acid receptors (RARs; Thacher S M, Vasudevan J, Chandraratna R A. Therapeutic applications for ligands of retinoid receptors. Curr Pharm Des. 2000 January; 6(1):25-58; Kambayashi H, Odake Y, Takada K, Funasaka Y, Ichihashi M, Kato S. N-retinoyl-D-glucosamine, a new retinoic acid agonist, mediates topical retinoid efficacy with no irritation on photoaged skin. Br J Dermatol. 2005 December; 153 Suppl 2:30-6).

3T3 cells = experiment: 3T3 Neutral Red phototoxicity (OECD 432); type: cell-based; conditions: up to at least 100 μg/ml
Protocol: Phototoxicity is defined as light-activated cytotoxicity. […] The protocol followed in this example was based on the OECD 432 Guidelines. Four 96 well plates were seeded with 3T3 cells (Sigma, St. Louis, Mo.; cat. 93061524-1VL) at 10,000 cells per well in DMEM supplemented with 10% iron-fortified calf serum, and grown overnight in humidified atmosphere at 37° C. in 5% CO2. Serial dilutions of SBD.SE and chlorpromazine (positive control) were added to 2 plates each. […]
[…] Plates were returned to the incubator for 24 h, afterward the medium was removed, cells were rinsed with PBS and placed in Neutral Red medium at 50 μg/ml in which cells were incubated for 3 more hours. Wells were then washed with PBS and Neutral Red was extracted from cells with 1.0% Glacial Acetic Acid/50% Ethanol/49% H2O solution.
Following a 30-minute extraction with mixing, the absorbance of each well was measured at 570 nm with Molecular Devices SpectraMax® microplate spectrophotometer. P values were calculated using two-tailed Student's test and p=0.05 was set as borderline for statistical significance.

adult HEK = experiment: Adult HEK proliferation; type: cell-based, human; conditions: Homo sapiens; 2.5 μg/ml
P. acnes = experiment: MIC against planktonic P. acnes; type: cell-based, Propionibacterium acnes; conditions: Cutibacterium acnes; exponentially-growing planktonic bacteria, oxygen-free atmosphere; read-out: MIC (minimal inhibitory concentration)
Protocol: Serial dilutions of SBD.SE and SBD.FA were incubated with exponentially-growing planktonic P. acnes bacteria in oxygen-free atmosphere.
The MIC (minimal inhibitory concentration) for SBD.SE was determined to be about 30 μg/ml and for SBD.FA—about 60 μg/ml.

[1] = system: non-irradiated neonatal HDF; experiment: Cytotoxicity on non-irradiated neonatal HDF monolayers; type: cell-based, human; conditions: 12.5 μg/ml
[2] = system: mouse melanoma cells (B16F10); experiment: B16F10 melanoma growth and melanin; type: cell-based; conditions: Mus musculus, B16-F10; 2.5 μg/ml; read-out: inhibition of B16F10 melanocyte proliferation
Description: Instead, cells cultured in the presence of SBD.SE grew slower and if allowed to reach monolayer, they become growth-arrested due to contact inhibition. […] Other retinoids, such as bexarotene, are known to have antineoplastic activity against cancers such as cutaneous T cell lymphoma.
The mechanism of action for this effect may be multifactorial and involve the inhibition of tyroinase and/or melanin secretion by melanocytes.

[3] = system: UVB-irradiated neonatal human dermal fibroblasts (HDF); experiment: MTT cytotoxicity on UVB-irradiated HDF; type: cell-based; conditions: 10 μg/ml
Description: Retinoids are used to remediate the effects of photoaging, caused by exposure to solar radiation (Tierney, E. P., Hanke C. W., “Recent Advances in Combination Treatments for Photoaging: Review of the Literature,” Dermatol. Surg., 2010, 36:829-40). Therefore, we compared the effect of bakuchiol and SBD.FA on confluent cultures of UVB-irradiated neonatal human dermal fibroblasts (HDF). The total irradiation dose (150mJ/cm2) was biologically relevant, i.e., equivalent to doses received by humans exposed to midday, clear sky, midsummer sun for a moderate period of time (Besaratinia, A., Kim, S. I., Pfeifer, G. P., “Rapid repair of UVA-induced oxidized purines and persistence of UVB-induced dipyrimidine lesions determine the mutagenicity of sunlight in mouse cells,” FASEB J., 2008, 22(7):2379-92). […] Under these conditions, the cytotoxicity at the highest concentration tested (10 μg/ml) compared to the water-treated control was 36% for bakuchiol and 8% for SBD.FA, as determined by the MTT method (Berridge M. V., Tan A. S., “Characterization of the Cellular Reduction of 3-(4,5-dimethylthiazol-2-yl)-2,5-diphenyltetrazolium bromide (MTT): Subcellular Localization, Substrate Dependence, and Involvement of Mitochondrial Electron Transport in MTT Reduction,” Arch. Biochem. Biophys. 1993, 303:474-482), using Molecular Devices microplate spectrophotometer MAX190 at 570 nm.

[4] = DPPH assay (free radical scavenging); type: biochemical; conditions: 520 nm
Description: The objective of this experiment was to determine the antioxidant capacity of SBD.SE, using DPPH assay methodology. DPPH (2,2-diphenyl-1-picrylhydrazyl) is a stable free radical. The principle of the DPPH assay uses the reduction of the DPPH radical (purple) to diphenylpicrylhydrazine (yellow) as an indication of free radical scavenging capacity of a given test material (Schenk, G. H., Swieczkowski, N. K., “Colorimetric determination of pyrogallol and 2,6-dimethoxyphenol with diphenylpicrylhydrazyl,” Talanta, 1971, 18:230-4). Following the incubation of a test agent with DPPH solution, a reduction in absorbance at 520 nm compared to control is indicative of DPPH-scavenging. The degree of DPPH scavenging activity is expressed as % water control.

[5] = UVB irradiation, HPLC-MS profile; type: physicochemical; conditions: irradiated vs non-irradiated
Description: Both compounds were irradiated with UVB light and their HPLC-MS profile was compared to their respective non-irradiated controls. FIGS. 2, 3, 6, and 7 show HPLC chromatograms of UVB-irradiated (lower portions) and non-irradiated samples (upper portions) of bakuchiol (FIGS. 2 and 3) and SBD.SE (FIGS. 6 and 7) detected at 254 nm (FIGS. 2 and 6) and 230 nm (FIGS. 3 and 7).

Row | Structure (SMILES) | increase of RAR-mediated transcription (RAR) | cytotoxicity in absence and presence of UVB light (3T3 cells) | inhibition at 2.5 µg/mL (adult HEK) | MIC (P. acnes) | cytotoxicity ([1]; human) | inhibition at 2.5 µg/mL [2] | cytotoxicity compared to the water-treated control ([3]; human, 48 h) | DPPH color (% Control) ([4]; 0.5 ug/ml) | DPPH color (% Control) ([4]; 2 ug/ml) | DPPH color (% Control) ([4]; 10 ug/ml) | stability under UVB irradiation (HPLC-MS) [5] | cytotoxicity ([1]; monolayers formed before addition) | cytotoxicity compared to the water-treated control ([3]; UVB 150mJ/cm2, added 24 h before, terminated 24 h after irradiation, MTT)
1 | CC1=C(/C=C/C(C)=C/C=C/C(C)=C/C(=O)O)C(C)(C)CCC1 [ATRA, all-trans retinoic acid, reference compound] | 460% | – | – | – | – | – | – | – | – | – | – | – | –
2 | C=CC(C)(/C=C/c1ccc(OC(=O)/C=C/c2ccc(O)c(OC)c2)cc1)CCC=C(C)C (stereo not shown) [SBD.FA] | – | lack of significant cytotoxicity | 21% | ~60 µg/mL (≈ 139 µM) | 8% | 53% | 8% | 102 % Control | 99 % Control | 60 % Control | – | – | –
3 | C=C[C@@](C)(/C=C/c1ccc(O)cc1)CCC=C(C)C [bakuchiol, reference compound] | – | – | – | – | – | – | – | 85 % Control | 92 % Control | 46 % Control | disintegrates | 39% | 36%
